Experimental findings from EP1595536A1, “PHARMACEUTICALS COMPRISING SHIKONINS AS ACTIVE CONSTITUENT” (Beijing JBC Chinese Traditional Medicine Science and …, priority 2003, dated 2004) are described below.

Values after ≈ are worked out from the molar mass of the structure shown. Like-named read-outs stand apart in the source and are kept apart here.

By MIC is commonly meant the least concentration at which growth counts as inhibited. A high value points to a less susceptible organism. The term MIC90 denotes an inhibitory concentration at the 90% level, which refers to growth in some studies and to a panel of isolates in others.

One data set relates to W256. The data set can be described thus: Animal test of tumor restraint. It counts as in vivo.
Data set [1] deals with Ascitic tyre liver cancer. The data set can be described thus: Animal test of tumor restraint. It counts as in vivo.
The next data set concerns Helicobacter pylori. The data set can be described thus: Drug sensitivity test (MIC).
In the next data set the test system is mycoplasma pneumoniae. Description: Bacteriostatic effect on mycoplasma.
The next data set concerns L1210. The data set can be described thus: Animal test of tumor restraint. It counts as in vivo.
A further data set concerns Lewis lung cancer. Description: Animal test of tumor restraint. The class given is in vivo.
A further data set deals with stenotrophomonas bacilli. Description: Drug sensitivity test (MIC).
In a further data set the test system is S180. The data set can be described thus: Animal test of tumor restraint. It counts as in vivo.
For a further data set, the system named is pneumobacillus. The data set can be described thus: Drug sensitivity test (MIC).
For another data set, the system named is red trichophyton. The data set can be described thus: In vitro antifungal test. It counts as cell-based.
The next data set has as its system bacteroides fragilis. Description: Drug sensitivity test (MIC).
A further data set deals with cryptococcus neoformans. The data set can be described thus: In vitro antifungal test. The class given is cell-based.
Data set [2] concerns Gram-positive staphylococcus aureus. The data set can be described thus: Drug sensitivity test (MIC).
Data set [3] concerns Staphylococcus epidermidis. The data set can be described thus: Comparative MIC experiment, Zicao extract vs Shikonin compounds.
The test system of the next data set is Candida albicans. The description is as above.
A further data set deals with Pseudallescheria boydii. Description: In vitro antifungal test. The note with it: Scedosporium boydii. The class given is cell-based.
The next data set deals with DHBV. Description: Virus restraint in DHBV-infected duck. The note with it: oral, 100mg/kg twice a day, 10 days. The class given is in vivo.
Data set [4] deals with aspergillus fumigatus, cryptococcus and red trichophyton. The data set can be described thus: In vitro antifungal test. The class given is cell-based.
The subject of a further data set is dermatophyte. Description: In vitro antifungal test. The class given is cell-based.
The subject of a further data set is C.krusei. Description: In vitro antifungal test. It counts as cell-based. The note with it: Pichia kudriavzevii.
The next data set has as its system candida and cryptococcus. The data set can be described thus: In vitro antifungal test. The class given is cell-based.
The next data set has as its system Bacteroid. Description: Comparative MIC experiment, Zicao extract vs Shikonin compounds. It counts as cell-based.
The next data set has as its system Serratia marcescens. The data set is described as above.
Where [5] appears, read: stenotrophomonas bacilli, stated as especially effective, compared with berberine.
[6] abbreviates: bacteroid, especially bacteroides fragilis.
[7] abbreviates: Gram-positive staphylococcus aureus.

For the molecule `CC(=O)O[C@H](CC=C(C)C)C1=CC(=O)c2c(O)ccc(O)c2C1=O` [Acetylshikonin], the Tumor inhibitory rate is recorded as 77% in the data set on W256, 47.8% in data set [1], 52.6% in the data set on Lewis lung cancer and 35.7% in the data set on S180. Also, the Life prolonged rate is 112.6% in data set [1] and 128% in the data set with L1210. Besides, the MIC in the data set on Helicobacter pylori is 0.391 - 0.781 ì g/ml; against mycoplasma pneumoniae (mycoplasma pneumoniae), 7.819 ì g/ml; against stenotrophomonas bacilli (setting [5]), 0.391-0.781 ì g/ml; in the data set with pneumobacillus, 0.391-6.25 ì g/ml; in the data set on pneumobacillus (some bacterial strains), 12.5-50 ì g/ml; against red trichophyton it was 0.9062- 62.5 ¦Ìg/ml. Also, the MIC with bacteroides fragilis (setting [6]) is 0.391-6.25 ì g/ml; against cryptococcus neoformans it was 3.906 ¦Ìg/ml; in data set [2] (setting [7]), 0.391-12.5 ì g/ml.

Molecule `CC(C)=CC[C@@H](O)C1=CC(=O)c2c(O)ccc(O)c2C1=O` [Shikonin] returned a Life prolonged rate in data set [1] of 130.8%. In addition, the MIC in the data set with Helicobacter pylori is on record as 0.391 - 0.781 ì g/ml; in the data set with mycoplasma pneumoniae (mycoplasma pneumoniae), 3.751 ì g/ml; in the data set with stenotrophomonas bacilli (setting [5]), 0.391-0.781 ì g/ml; in the data set with pneumobacillus, 0.391-6.25 ì g/ml; against pneumobacillus (some bacterial strains), 12.5-50 ì g/ml; against bacteroides fragilis (setting [6]), 0.391-6.25 ì g/ml. For the same molecule, the MIC in [2] (setting [7]) was 0.391-12.5 ì g/ml.

Turning to `CC(C)=CCC(OC(=O)C=C(C)C)C1=CC(=O)c2c(O)ccc(O)c2C1=O` (stereo not drawn), the MIC in data set [3] was 0.391 µg/mL (≈ 1.06 µM); against Candida albicans, 3.91 µg/mL (≈ 10.5 µM); in the data set with Pseudallescheria boydii, 4.16 to 8.32 µg/mL (≈ 11.2 to 22.5 µM); in the data set with Helicobacter pylori, 0.391 to 0.781 µg/mL (≈ 1.06 to 2.11 µM); with mycoplasma pneumoniae (Mycoplasma) it was 2 µg/mL (≈ 5.4 µM); in data set [4], 3.06 to 250 µg/mL (≈ 8.27 to 675 µM). Also, the MIC against stenotrophomonas bacilli (Stenotrophomonas) lay within 0.391 to 0.781 µg/mL (≈ 1.06 to 2.11 µM); in the data set with dermatophyte it was 4.16 to 8.32 µg/mL (≈ 11.2 to 22.5 µM); with C.krusei it was 8.32 to 16.6 µg/mL (≈ 22.5 to 44.8 µM); with pneumobacillus, 0.391 to 6.25 µg/mL (≈ 1.06 to 16.9 µM); against pneumobacillus (some bacterial strains), 12.5 to 50 µg/mL (≈ 33.7 to 135 µM); with candida and cryptococcus, 2.08 to 33.3 µg/mL (≈ 5.62 to 89.9 µM). Also, the MIC against bacteroides fragilis (Bacteroides fragilis) was 0.391 to 6.25 µg/mL (≈ 1.06 to 16.9 µM); against Bacteroid, 0.391 µg/mL (≈ 1.06 µM); in data set [2] (Staphylococcus aureus), 0.391 to 12.5 µg/mL (≈ 1.06 to 33.7 µM); against Serratia marcescens it was 0.781 µg/mL (≈ 2.11 µM). In data set [1], the Life prolonged rate came to 113.4%. Besides, in the data set with DHBV, the toxic reaction entry is “without toxic reaction”. The figures for the Tumor inhibitory rate in the data set with Lewis lung cancer and with S180 were 42.8% and 9.63%, respectively. The MIC90 was found to be 4.16 µg/mL (≈ 11.2 µM) against dermatophyte; 33.3 µg/mL (≈ 89.9 µM) in the data set with candida and cryptococcus.

For `OC(Cn1cncn1)(Cn1cncn1)c1ccc(F)cc1F` [fluconazole, reference compound], in the data set on dermatophyte, the MIC is 32 to 64 µg/mL (≈ 104 to 209 µM) and the MIC90 was 64 µg/mL (≈ 209 µM).

In turn, `COc1ccc2cc3[n+](cc2c1OC)CCc1cc2c(cc1-3)OCO2` [berberine, reference compound] yielded an MIC against stenotrophomonas bacilli (Stenotrophomonas) of 8 to 32 µg/mL.
